According to US20100035762A1, “Prognostic Methods in Colorectal Cancer” (Oryzon Genomics, S.A., priority 2006, published 2010):

Tests used:
[1] = tested on: EphB4 gene expression in SW620 cells; assay: Treatment of colorectal cancer cell line SW620, EphB4 gene expression by RT-PCR; assay type: cell-based; conditions: 72 h
Description: (§1) Top panel: changes in gene expression a measured by RT-PCR. Lower panel: changes in methylation a measure by PCR on bisulfite treated DNA with methylation specific primers.
(§2) Cultures of the colorectal cancer cell line SW620, characterized by a low expression level and methylation the EphB4 promoter; were treated during 72 h with different concentrations of 5aza- cytidin.

EphB4 promoter = assay: Treatment of SW620, EphB4 promoter methylation by PCR on bisulfite treated DNA with methylation specific primers; assay type: cell-based; conditions: SW620 cells
Description: as §1, §2

Compound: Nc1ncn([C@@H]2O[C@H](CO)[C@@H](O)[C@H]2O)c(=O)n1 [5-aza-cytidine]
- most effective dose for increase of EphB4 gene expression [1]: 10 µM
- level of EphB4 gene expression ([1]; different concentrations): increase
- methylation of the EphB4 promoter (EphB4 promoter): reduces the methylation
